Data on 20 compounds can be found in patent publication US12630534B2 (TAKEDA PHARMACEUTICAL COMPANY LIMITED, priority 2020, dated 2026).

For assay [1], the target named is T1, human GPR139 (Homo sapiens, UniProt Q6DWJ6).
T1 construct: expressed in transfected cells; host or cells: CHO-TREx (Life Technologies) cells, expression induced with doxycycline
T1 sequence (Q6DWJ6 1-353): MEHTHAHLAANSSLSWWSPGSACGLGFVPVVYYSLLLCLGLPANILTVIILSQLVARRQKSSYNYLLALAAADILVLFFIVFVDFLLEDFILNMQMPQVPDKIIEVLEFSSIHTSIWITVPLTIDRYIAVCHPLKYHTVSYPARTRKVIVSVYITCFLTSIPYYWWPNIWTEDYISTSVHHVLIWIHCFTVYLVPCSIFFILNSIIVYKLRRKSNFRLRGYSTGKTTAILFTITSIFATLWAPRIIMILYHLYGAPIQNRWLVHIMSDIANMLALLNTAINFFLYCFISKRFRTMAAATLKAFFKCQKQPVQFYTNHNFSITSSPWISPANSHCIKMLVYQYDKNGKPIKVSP
Put plainly: Inhibition rate of the amount of IP1 in GPR139-expressed CHO cells (Test Example 1, IP-ONE HTRF assay). It is filed as cell-based. How it is done:
Measurement of the Inhibition Rate of the Amount of IP1 in 30 μM of the Compound of Example 2 in GPR139-Expressed CHO Cells
Changes in the amount of IP1 in GPR139-expressed CHO cells were measured in order to evaluate the activity of the compound via GPR139. GPR139 is a Gq-coupled receptor which varies intracellular calcium (Liu C et al., Mol Pharmacol. 2015 November; 88(5):911-25), so the amount of IP1, which is a stable metabolite of the second messenger IP3, changes due to activity regulation of GPR139. GPR139 is considered to be […] when expressed recombinantly in mammal cells, so a compound having a GPR139 receptor inverse agonist action is expected to reduce the amount of IP1 production.
The measurement of IP1 was made using an IP-ONE HTFR assay kit (cis-bio) and CHO-TREx (Life Technologies) cells stably transfected with GPR139. The CHO-TREx cells expressed human GPR139 with a tetracycline-inducing element. […]
The compound was diluted with the stimulation buffer, and 4 μL was added to a 384-well white assay plate (Greiner). […] After the fluorescence strengths of two wavelengths were measured by the HTRF settings of Envision (PerkinElmer), the value of Ratio={(Signal 665 nm)/(Signal 615 nm)}×10000 was calculated.

Assay [2] concerns the target T1, human GPR139. Put plainly: Inhibition rate of the amount of IP1 in GPR139-expressed CHO cells (inverse agonist assay, Test Example 2). As to conditions: relative value, inhibition rate of Example Compound 2 in Test Example 1 defined as 100%; for inhibition at 30 µM: CHO. The format is cell-based. The essentials: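 CHO-TREx cells with doxycycline-inducible human GPR139 (2 μg/mL, 17 h) were incubated with compound at 2000 cells/well for 40 min at 37° C. IP1 quantified by HTRF (665/615 nm ratio ×10000); inhibition rate expressed relative to a reference compound defined as […].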

One may read the inhibition as the relative decrease from the control value, in per cent. As to `CCn1cc(Cn2ccn(-c3cc(N4CCO[C@H](C)C4)cc(C(F)(F)F)c3F)c2=O)cn1` [Example 2, 1-[(1-Ethyl-1H-pyrazole-4-yl)methyl]-3-{2-fluoro-5-[(2R)-2-methylmorpholine-4-yl]-3-(trifluoromethyl)phenyl}-1,3-dihydro-2H-imidazole-2-one], the “GPR139 receptor inverse agonist action (result in words)” value on human GPR139 [1] is listed as “exhibits GPR139 receptor inverse agonist action”. The inhibition at 30 µM at human GPR139 [2] came to 100%.

On to `CCn1cc(Cn2ccn(-c3cc(OCC4CC(F)(F)C4)cc(C(F)F)c3Cl)c2=O)cn1` [Example 69, 1-{2-chloro-5-[(3,3-difluorocyclobutyl)methoxy]-3-(difluoromethyl)phenyl}-3-[(1-ethyl-1H-pyrazol-4-yl)methyl]-1,3-dihydro-2H-imidazol-2-one], for which, at human GPR139 [2], the inhibition at 30 µM was determined as 95%.

Turning to `Cc1cn(-c2nc(N3CCO[C@H](C)C3)cc(C(F)(F)F)c2Cl)c(=O)n1Cc1cnn(C(C)C)c1` [Example 85, 1-{3-chloro-6-[(2R)-2-methylmorpholin-4-yl]-4-(trifluoromethyl)pyridin-2-yl}-4-methyl-3-{[1-(propan-2-yl)-1H-pyrazol-4-yl]methyl}-1,3-dihydro-2H-imidazol-2-one], the inhibition at 30 µM on human GPR139 [2] was found to be 97%.

On to `CCn1cc(Cn2ccn(-c3cc(N4C[C@@H](C)O[C@H](C)C4)cc(C(F)(F)F)c3F)c2=O)cn1` [Example 34, 1-{5-[(2R,6R)-2,6-dimethylmorpholin-4-yl]-2-fluoro-3-(trifluoromethyl)phenyl}-3-[(1-ethyl-1H-pyrazol-4-yl)methyl]-1,3-dihydro-2H-imidazol-2-one], for which the inhibition at 30 µM at human GPR139 [2] stood at 100%.

For the compound `CCn1cc(Cn2c(C)c(C)n(-c3cc(OCC(F)F)cc(N4CCO[C@H](C)C4)c3)c2=O)cn1` [Example 46, 1-{3-(2,2-difluoroethoxy)-5-[(2R)-2-methylmorpholin-4-yl]phenyl}-3-[(1-ethyl-1H-pyrazol-4-yl)methyl]-4,5-dimethyl-1,3-dihydro-2H-imidazol-2-one], the inhibition at 30 µM at human GPR139 [2] was determined as 100%.

On to `CCn1cc(Cn2cc(C)n(-c3cc(C(F)(F)F)cc(N4CCO[C@H](C)C4)n3)c2=O)cn1` [Example 18, 1-[(1-Ethyl-1H-pyrazole-4-yl)methyl]-4-methyl-3-{6-[(2R)-2-methylmorpholine-4-yl]-4-(trifluoromethyl)pyridine-2-yl}-1,3-dihydro-2H-imidazole-2-one], for which the inhibition at 30 µM on human GPR139 [2] was 101%.

For `CCn1cc(Cn2ccn(-c3cc(N4CCC(F)(F)CC4)cc(C4CC4(F)F)c3F)c2=O)cn1` (stereo not drawn) [Example 158, 1-[3-(2,2-difluorocyclopropyl)-5-(4,4-difluoropiperidin-1-yl)-2-fluorophenyl]-3-[(1-ethyl-1H-pyrazol-4-yl)methyl]-1,3-dihydro-2H-imidazol-2-one], the “Inhibition Rate at 30 μM” value on human GPR139 [2] amounted to 98%.

Consider `CCn1cc(Cn2cc(C)n(-c3cc(N4CCOC(C)(C)C4)cc(C(F)(F)F)c3)c2=O)cn1` [Example 29, 3-[3-(2,2-dimethylmorpholin-4-yl)-5-(trifluoromethyl)phenyl]-1-[(1-ethyl-1H-pyrazol-4-yl)methyl]-4-methyl-1,3-dihydro-2H-imidazol-2-one], for which the inhibition at 30 µM on human GPR139 [2] came to 99%.

In the case of `CCn1cc(Cn2ccn(-c3nc(N4CCOC(C)(C)C4)cc(C(F)(F)F)c3F)c2=O)cn1` [Example 112, 1-[6-(2,2-dimethylmorpholin-4-yl)-3-fluoro-4-(trifluoromethyl)pyridin-2-yl]-3-[(1-ethyl-1H-pyrazol-4-yl)methyl]-1,3-dihydro-2H-imidazol-2-one], on human GPR139 [2], the inhibition at 30 µM is 100%.

As for `CCn1cc(Cn2c(C)c(C)n(-c3cc(C4CC4)cc(N4CCO[C@H](C)C4)n3)c2=O)cn1` [Example 162, 1-{4-cyclopropyl-6-[(2R)-2-methylmorpholin-4-yl]pyridin-2-yl}-3-[(1-ethyl-1H-pyrazol-4-yl)methyl]-4,5-dimethyl-1,3-dihydro-2H-imidazol-2-one], the inhibition at 30 µM on human GPR139 [2] was 101%.

Take `Cc1cn(-c2cc(N3CCO[C@H](C)C3)cc(C(F)F)c2F)c(=O)n1Cc1cnn(C(C)C)c1` [Example 98, 1-{3-(difluoromethyl)-2-fluoro-5-[(2R)-2-methylmorpholin-4-yl]phenyl}-4-methyl-3-{[1-(propan-2-yl)-1H-pyrazol-4-yl]methyl}-1,3-dihydro-2H-imidazol-2-one]: the inhibition at 30 µM at human GPR139 [2] worked out at 99%.

`CCn1cc(Cn2c(C)cn(-c3cc(N4CCO[C@H](C)C4)cc(OCC(F)(F)F)c3F)c2=O)cn1` [Example 55, 3-[(1-ethyl-1H-pyrazol-4-yl)methyl]-1-{2-fluoro-5-[(2R)-2-methylmorpholin-4-yl]-3-(2,2,2-trifluoroethoxy)phenyl}-4-methyl-1,3-dihydro-2H-imidazol-2-one]: on human GPR139 [2], the inhibition at 30 µM is 101%.

With `CCn1cc(Cn2ccn(-c3cc(N4CCO[C@H](C)C4)cc(C(F)(F)F)c3C)c2=O)cn1` [Example 8, 1-[(1-ethyl-1H-pyrazol-4-yl)methyl]-3-{2-methyl-5-[(2R)-2-methylmorpholin-4-yl]-3-(trifluoromethyl)phenyl}-1,3-dihydro-2H-imidazol-2-one], the inhibition at 30 µM on human GPR139 [2] was 101%.

Regarding `CCn1cc(Cn2cc(C)n(-c3cc(OCC4CC(F)(F)C4)cc(C4CC4)c3)c2=O)cn1` [Example 67, 3-{3-cyclopropyl-5-[(3,3-difluorocyclobutyl)methoxy]phenyl}-1-[(1-ethyl-1H-pyrazol-4-yl)methyl]-4-methyl-1,3-dihydro-2H-imidazol-2-one], on human GPR139 [2], the inhibition at 30 µM was 98%.

For the compound `C=Cc1cc(N2CCO[C@H](C)C2)cc(-n2ccn(Cc3cnn(CC)c3)c2=O)c1F` [Example 74, 1-{3-ethenyl-2-fluoro-5-[(2R)-2-methylmorpholin-4-yl]phenyl}-3-[(1-ethyl-1H-pyrazol-4-yl)methyl]-1,3-dihydro-2H-imidazol-2-one], the inhibition at 30 µM at human GPR139 [2] came to 98%.

For `CCn1cc(Cn2cc(C)n(-c3cc(OCC4CC4(F)F)cc(C(F)(F)F)c3)c2=O)cn1` (stereo not drawn) [Example 50, 3-{3-[(2,2-difluorocyclopropyl)methoxy]-5-(trifluoromethyl)phenyl}-1-[(1-ethyl-1H-pyrazol-4-yl)methyl]-4-methyl-1,3-dihydro-2H-imidazol-2-one], the “Inhibition Rate at 30 μM” value at human GPR139 [2] (30 µM) is given as 102%.

On to `Cc1cn(-c2cc(N3CCOC(C)(C)C3)cc(C(F)F)c2F)c(=O)n1Cc1cnn(C(C)C)c1` [Example 79, 1-[3-(difluoromethyl)-5-(2,2-dimethylmorpholin-4-yl)-2-fluorophenyl]-4-methyl-3-{[1-(propan-2-yl)-1H-pyrazol-4-yl]methyl}-1,3-dihydro-2H-imidazol-2-one], for which, at human GPR139 [2], the inhibition at 30 µM worked out at 98%.

Consider `CCn1cc(Cn2ccn(-c3cc(N4C[C@@H](C)O[C@@H](C)C4)cc(C(F)(F)F)c3F)c2=O)cn1` [Example 31, 1-{5-[(2R,6S)-2,6-dimethylmorpholin-4-yl]-2-fluoro-3-(trifluoromethyl)phenyl}-3-[(1-ethyl-1H-pyrazol-4-yl)methyl]-1,3-dihydro-2H-imidazol-2-one], for which the inhibition at 30 µM at human GPR139 [2] is 100%.

In the case of `CCn1cc(Cn2cc(C)n(-c3cc(C(F)(F)F)cc(OCC4CCCO4)n3)c2=O)cn1` (stereo not drawn) [Example 106, 1-[(1-ethyl-1H-pyrazol-4-yl)methyl]-4-methyl-3-{6-[(oxolan-2-yl)methoxy]-4-(trifluoromethyl)pyridin-2-yl}-1,3-dihydro-2H-imidazol-2-one], the inhibition at 30 µM at human GPR139 [2] stood at 102%.

Take `CCn1cc(Cn2c(C)nn(-c3cc(N4CCOC(C)(C)C4)cc(C(F)(F)F)c3F)c2=O)cn1` [Example 96, 2-[5-(2,2-dimethylmorpholin-4-yl)-2-fluoro-3-(trifluoromethyl)phenyl]-4-[(1-ethyl-1H-pyrazol-4-yl)methyl]-5-methyl-2,4-dihydro-3H-1,2,4-triazol-3-one]: the inhibition at 30 µM on human GPR139 [2] worked out at 101%.
